From patent US12398154B2, “Azaquinazoline pan-KRas inhibitors” (Mirati Therapeutics, Inc., priority 2020, dated 2025) come the findings set out here.

Experiment [1] deals with KRas G12D (Homo sapiens, UniProt P01116, G12D). The experiment can be described thus: biochemical.
Experimental: (§1) The ability of a compound to bind to KRas was measured using a TR-FRET displacement assay. […] After a 60-minute incubation at room temperature, the reaction was measured using a BMG LABTECH CLARIO star Plus via TR-FRET. […] The POC values were fit to a 4-parameter IC50 equation and the IC50 value reported.
Experiment [2] concerns the target KRas G12V (Homo sapiens, UniProt P01116, G12V). The experiment is described as follows: biochemical.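 Also: KRas binding measured by TR-FRET displacement at room temperature, IC50 fitted from percent of control values.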
Experimental: as §1
For experiment [3], the target named is KRas G12R (Homo sapiens, UniProt P01116, G12R). The experiment is described as follows: biochemical.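 Also: TR-FRET displacement assay of compound binding to KRas, read after one hour at room temperature, potency from a four-parameter fit of percent-of-control values.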
KRas G12R, sequence (P01116 1-169 isoform P01116-2 G12R): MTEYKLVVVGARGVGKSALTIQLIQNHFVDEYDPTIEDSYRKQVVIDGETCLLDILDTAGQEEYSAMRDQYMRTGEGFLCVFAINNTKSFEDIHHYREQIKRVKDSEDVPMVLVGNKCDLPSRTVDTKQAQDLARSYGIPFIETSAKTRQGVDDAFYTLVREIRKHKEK
Experimental: as §1
Experiment [4] has as its target KRas G12A (Homo sapiens, UniProt P01116, G12A). The experiment can be described thus: biochemical.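 Also: binding to KRas measured by TR-FRET displacement after one hour at room temperature, IC50 from a four-parameter fit of percent-of-control values.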
Experimental: as §1
Experiment [5] deals with KRas G12S (Homo sapiens, UniProt P01116, G12S). The experiment can be described thus: biochemical.
KRas G12S, sequence (P01116 1-169 isoform P01116-2 G12S): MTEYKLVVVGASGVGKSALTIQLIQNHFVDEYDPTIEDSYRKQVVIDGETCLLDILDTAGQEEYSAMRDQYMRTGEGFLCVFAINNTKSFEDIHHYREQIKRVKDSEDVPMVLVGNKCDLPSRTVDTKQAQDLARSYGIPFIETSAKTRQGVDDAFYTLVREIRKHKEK
Experimental: as §1
For experiment [6], the target named is KRas G12C (Homo sapiens, UniProt P01116, G12C). The experiment is described as follows: biochemical.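 Also: binding to KRas assessed by TR-FRET displacement after one hour incubation at room temperature, potency fitted from percent-of-control values.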
KRas G12C, sequence (P01116 1-169 isoform P01116-2 G12C): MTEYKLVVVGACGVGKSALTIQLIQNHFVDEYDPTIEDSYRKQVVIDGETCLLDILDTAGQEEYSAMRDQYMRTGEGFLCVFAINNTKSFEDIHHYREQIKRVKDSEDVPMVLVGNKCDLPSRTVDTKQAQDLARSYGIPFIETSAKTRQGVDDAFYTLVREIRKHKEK
Experimental: as §1
For experiment [7], the target named is KRas WT (Homo sapiens, UniProt P01116). The experiment is described as follows: biochemical.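 Also: binding to KRas read as TR-FRET displacement after a one-hour room-temperature incubation, IC50 derived from percent-of-control values.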
KRas WT, sequence (P01116 1-169 isoform P01116-2): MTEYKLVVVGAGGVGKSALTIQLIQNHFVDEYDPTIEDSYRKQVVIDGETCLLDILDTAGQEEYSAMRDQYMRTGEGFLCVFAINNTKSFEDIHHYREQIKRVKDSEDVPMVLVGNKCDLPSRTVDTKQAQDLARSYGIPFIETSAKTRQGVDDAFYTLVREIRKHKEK
Experimental: as §1
The subject of experiment [8] is pERK in MKN1 cells. The experiment is described as follows: Inhibition of KRas phosphorylation of ERK (Cisbio HTRF pERK assay). The following applies: Homo sapiens, MKN-1, 3 h, read-out: Inhibition (HTRF IC50) of KRas-mediated Phosphorylation of ERK, MKN1. On the technique in general: Time-resolved FRET reads energy transfer from a long-lived donor to a nearby acceptor.
Experimental: (§2) To harvest cells from flask using 0.05% Trypsin/EDTA solution. Add 10 mL of media to stop trypsinizing. Pipette the cells into a conical bottom 50 mL centrifuge tube and centrifuge 5 min×1000 rpm. • 2. Re-suspend the cell pellet in media, take a cell count, and then adjust the cell density using fresh media. • 3. Seed 6,000 cells into cell culture plate with 50 μL media. […] Incubate cell plate overnight in a 37° C., 5% CO2 incubator. • Compound titrations • 1. Use Tecan to complete the compound addition. Compounds start from 10 uM top, 3-fold dilution, and 10 doses. The final DMSO concentration is 0.8%. Dispensed 0.2 uM Trametinib as Min control. • 2. Incubate cell plate for 3 hrs in the incubator. • Detection with cisbio pERK HTRF kit • 1. […] At the end of the compound treatment, flick-off the media. • 3. Add 35 μL of lysis buffer per well using a Multidrop Combi. Then place on a plate agitator shaking at 300 rpm at 4° C. for 40 mins. • 4. Make up the HTRF antibody buffer. For each assay plate, mix 50 μL of d2-conjugate antibody with 950 μL of detection buffer. Similarly, mix 50 μL of Cryptate antibody with 950 μL of detection buffer. Then mix the two diluted antibodies together. • 5. Dispense 3.4 μL the antibody buffer to wells of an empty assay plate. Seal the plate and centrifuge plate 30 sec×1000 rpm. • 6. At the end of the 4° C. lysis, centrifuge the lysate plates 3 mins×1500 rpm. • 7. Use the Bravo to transfer 13.6 μL of lysate from cell culture plate to assay plate.
(§3) Then incubate assay plate for 2 hrs at room temperature. […] At the end of incubation, read plate on the Envision after centrifuging plate 30 sec× • 1000 rpm.

The test system of experiment [9] is pERK in PSN1 cells. Described as above. The following applies: Homo sapiens, PSN1, 3 h, read-out: Inhibition (HTRF IC50) of KRas-mediated Phosphorylation of ERK, PSN1.
Experiment [10] concerns pERK in ASPC1 cells. Described as above. As to conditions: Homo sapiens, ASPC1, read-out: Inhibition (HTRF IC50) of KRas-mediated Phosphorylation of ERK, AsPC-1.
The subject of experiment [11] is pERK in H727 cells. Described as above. As to conditions: Homo sapiens, NCI-H727, read-out: Inhibition (HTRF IC50) of KRas-mediated Phosphorylation of ERK, H727.
Experiment [12] relates to pERK in H460 cells. Described as above. The following applies: Homo sapiens, NCI-H460, read-out: Inhibition (HTRF IC50) of KRas-mediated Phosphorylation of ERK, H460.
Experimental: as §2, §3
For experiment [13], the system named is pERK in HCT116 cells. Described as above. The following applies: Homo sapiens, HCT-116, read-out: Inhibition (HTRF IC50) of KRas-mediated Phosphorylation of ERK, HCT116.

Where only a bound is given, the exact number is not on record here.

KRas G12D, sequence (P01116 1-169 isoform P01116-2 G12D): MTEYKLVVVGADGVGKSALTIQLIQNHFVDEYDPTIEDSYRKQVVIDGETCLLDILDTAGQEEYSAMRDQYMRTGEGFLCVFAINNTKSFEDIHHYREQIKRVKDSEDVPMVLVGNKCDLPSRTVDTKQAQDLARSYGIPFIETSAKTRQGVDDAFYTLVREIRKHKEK
KRas G12V, sequence (P01116 1-169 isoform P01116-2 G12V): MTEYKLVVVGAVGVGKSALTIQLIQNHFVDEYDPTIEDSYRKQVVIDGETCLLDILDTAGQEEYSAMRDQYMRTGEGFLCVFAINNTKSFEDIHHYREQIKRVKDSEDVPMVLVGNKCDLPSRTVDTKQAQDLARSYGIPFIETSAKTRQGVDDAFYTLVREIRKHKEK
KRas G12A, sequence (P01116 1-169 isoform P01116-2 G12A): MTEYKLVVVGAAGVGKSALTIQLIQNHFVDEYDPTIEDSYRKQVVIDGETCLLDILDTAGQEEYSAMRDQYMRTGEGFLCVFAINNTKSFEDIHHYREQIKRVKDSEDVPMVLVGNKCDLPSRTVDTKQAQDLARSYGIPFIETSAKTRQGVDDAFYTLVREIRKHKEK

Consider `CCc1c(F)ccc2cc(O)cc(-c3ncc4c(N5CCCC6(CC(=O)NC6=O)C5)nc(OC[C@@]56CCCN5C[C@H](F)C6)nc4c3F)c12` (stereo partly drawn) [Example 318, 7-(7-(8-ethyl-7-fluoro-3-hydroxynaphthalen-1-yl)-8-fluoro-2-(((2R,7aS)-2-fluorohexahydro-1H-pyrrolizin-7a-yl)methoxy)pyrido[4,3-d]pyrimidin-4-yl)-2,7-diazaspiro[4.5]decane-1,3-dione], for which the IC50 in experiment [1], in [2], in experiment [3], in experiment [4], in [5] and in experiment [6] was no more than 2 nM throughout. In addition, the IC50 (in general, the concentration that gives 50% inhibition) in experiment [7] was no more than 2 nM; in experiment [8], 13 nM; in experiment [9], 877 nM; in [10] it was 133 nM; in experiment [11], 69 nM; in [12], 65 nM. For the same molecule, the IC50 in experiment [13] came to 60 nM.

For the molecule `CCc1c(F)ccc2cc(O)cc(-c3ncc4c(N5C[C@@H]6C[C@H](C5)[C@H](O)C6)nc(OCC5(CN6CCCC6)CC5)nc4c3F)c12` [Example 320, (1R,5R,6R)-3-(7-(8-ethyl-7-fluoro-3-hydroxynaphthalen-1-yl)-8-fluoro-2-((1-(pyrrolidin-1-ylmethyl)cyclopropyl)methoxy)pyrido[4,3-d]pyrimidin-4-yl)-3-azabicyclo[3,2,1]octan-6-ol], the IC50 in experiment [1] was 3 nM; in experiment [2], no more than 2 nM; in experiment [3], 3 nM; in experiment [4] it was no more than 2 nM; in experiment [5] it was no more than 2 nM; in [6] it was no more than 2 nM. For the same molecule, the IC50 is no more than 2 nM in experiment [7]; 10 nM in experiment [8]; 5180 nM in experiment [9]; 115 nM in experiment [10]; 82 nM in experiment [11]; 100 nM in experiment [12]. Further, the IC50 in experiment [13] stood at 65 nM.

As for `CCc1c(F)ccc2cc(O)cc(-c3ncc4c(N5CCCCC(O)C5)nc(OC[C@@]56CCCN5C[C@H](F)C6)nc4c3F)c12` (stereo partly drawn) [Example 347, 1-(7-(8-ethyl-7-fluoro-3-hydroxynaphthalen-1-yl)-8-fluoro-2-(((2R,7aS)-2-fluorohexahydro-1H-pyrrolizin-7a-yl)methoxy)pyrido[4,3-d]pyrimidin-4-yl)azepan-3-ol], the IC50 worked out at 3 nM in experiment [1]; 3 nM in experiment [2]; 3 nM in [3]; 98 nM in experiment [8]; 4460 nM in experiment [9]; 118 nM in experiment [10]. Moreover, the IC50 in experiment [11] worked out at 73 nM; in experiment [12] it was 127 nM; in experiment [13], 195 nM.

Regarding `O=C1C[C@]2(CCCN(c3nc(OC[C@@]45CCCN4C[C@H](F)C5)nc4c(F)c(-c5cc(O)cc6ccc(F)c(Cl)c56)ncc34)C2)N1` [Example 416, (S)-6-(7-(8-chloro-7-fluoro-3-hydroxynaphthalen-1-yl)-8-fluoro-2-(((2R,7aS)-2-fluorohexahydro-1H-pyrrolizin-7a-yl)methoxy)pyrido[4,3-d]pyrimidin-4-yl)-1,6-diazaspiro[3.5]nonan-2-one], the IC50 in [1] is no more than 2 nM; in [2], no more than 2 nM; in [3] it was no more than 2 nM; in [8] it was 3 nM; in experiment [9], 1300 nM; in experiment [10] it was 141 nM. For the same molecule, the figures for the IC50 in experiment [11], in experiment [12] and in experiment [13] were 83 nM, 283 nM and 2190 nM, respectively.

Turning to `O=S1(=O)NCC2(CCCN(c3nc(OC[C@@]45CCCN4C[C@H](F)C5)nc4c(F)c(-c5cc(O)cc6ccc(F)c(Cl)c56)ncc34)C2)N1` (stereo partly drawn) [Example 417, 7-(7-(8-chloro-7-fluoro-3-hydroxynaphthalen-1-yl)-8-fluoro-2-(((2R,7aS)-2-fluorohexahydro-1H-pyrrolizin-7a-yl)methoxy)pyrido[4,3-d]pyrimidin-4-yl)-2-thia-1,3,7-triazaspiro[4.5]decan 2,2-dioxide], the IC50 is no more than 2 nM in experiment [1]; no more than 2 nM in experiment [2]; no more than 2 nM in experiment [3]; no more than 2 nM in [6]; no more than 2 nM in experiment [7]; 20 nM in experiment [8]. Moreover, the IC50 in [9] was 110 nM; in [10], 182 nM; in [11], 57 nM; in experiment [12], 63 nM; in experiment [13], 79 nM.

`Oc1cc(-c2ncc3c(N4CC5CC(O)CC4C5)nc(OC[C@@]45CCCN4C[C@H](F)C5)nc3c2F)c2c(Cl)c(F)ccc2c1` (stereo partly drawn) [Example 422, 6-(7-(8-chloro-7-fluoro-3-hydroxynaphthalen-1-yl)-8-fluoro-2-(((2R,7aS)-2-fluorohexahydro-1H-pyrrolizin-7a-yl)methoxy)pyrido[4,3-d]pyrimidin-4-yl)-6-azabicyclo[3.2.1]octan-3-ol]: the IC50 in experiment [1] was 7 nM; in experiment [2], no more than 2 nM; in experiment [3], 5 nM; in experiment [8] it was 26 nM; in experiment [9], 1810 nM; in experiment [10], 430 nM. Also, the values for the IC50 in [11], in experiment [12] and in experiment [13] were 112 nM, 303 nM and 539 nM, respectively.

Consider `CCc1c(F)ccc2cc(O)cc(-c3ncc4c(N5CCCC6(C5)CS(=O)(=O)C6)nc(OC[C@@]56CCCN5C[C@H](F)C6)nc4c3F)c12` [Example 481, 6-(7-(8-ethyl-7-fluoro-3-hydroxynaphthalen-1-yl)-8-fluoro-2-(((2R,7aS)-2-fluorohexahydro-1H-pyrrolizin-7a-yl)methoxy)pyrido[4,3-d]pyrimidin-4-yl)-2-thia-6-azaspiro[3.5]nonane 2,2-dioxide], for which the IC50 worked out at 4 nM in experiment [1]; 4 nM in experiment [2]; 7 nM in experiment [3]; 49 nM in experiment [8]; 5410 nM in experiment [9]; 387 nM in [10]. Also, the IC50 in experiment [11] was 643 nM; in experiment [12] it was 827 nM; in [13], 3150 nM.

`CCc1c(F)ccc2cc(O)cc(-c3ncc4c(NCC5CNS(=O)(=O)N5)nc(OC[C@@]56CCCN5C[C@H](F)C6)nc4c3F)c12` (stereo partly drawn) [Example 494, 3-(((7-(8-ethyl-7-fluoro-3-hydroxynaphthalen-1-yl)-8-fluoro-2-(((2R,7aS)-2-fluorohexahydro-1H-pyrrolizin-7a-yl)methoxy)pyrido[4,3-d]pyrimidin-4-yl)amino)methyl)-1,2,5-thiadiazolidine 1,1-dioxide]: the IC50 in [1] was 3 nM; in [2], no more than 2 nM; in [3], no more than 2 nM; in [8] it was 135 nM; in [9] it was no less than 10000 nM; in experiment [10] it was 354 nM. The IC50 is 795 nM in experiment [11], 982 nM in experiment [12] and 2170 nM in experiment [13].

With `CCc1c(F)ccc2cc(O)cc(-c3ncc4c(N5CCCn6nc(C(=O)NCCO)cc6C5)nc(OC[C@@]56CCCN5C[C@H](F)C6)nc4c3F)c12` [Example 506, 5-(7-(8-ethyl-7-fluoro-3-hydroxynaphthalen-1-yl)-8-fluoro-2-(((2R,7aS)-2-fluorotetrahydro-1H-pyrrolizin-7a(5H)-yl)methoxy)pyrido[4,3-d]pyrimidin-4-yl)-N-(2-hydroxyethyl)-5,6,7,8-tetrahydro-4H-pyrazolo[1,5-a][1,4]diazepine-2-carboxamide], the IC50 in experiment [1] was no more than 2 nM; in experiment [2] it was no more than 2 nM; in experiment [3], no more than 2 nM; in experiment [8] it was 703 nM; in experiment [9] it was no less than 10000 nM; in [10], 302 nM. The IC50 in [11] was 2220 nM; in experiment [12], 8910 nM; in [13] it was no less than 10000 nM.
